Laboratory results as given in ChEMBL document CHEMBL5260837, “Recent advances in small molecule based cancer immunotherapy” (Eur J Med Chem, 2018).
pEC50, pIC50, pKi: −log10 of the molar value.

Columns and labels:
[1] = molecular target: T1, Arginase-2, mitochondrial (Homo sapiens, UniProt P78540); assay: Competitive inhibition of human ARG2
T1 sequence (P78540 whole entry): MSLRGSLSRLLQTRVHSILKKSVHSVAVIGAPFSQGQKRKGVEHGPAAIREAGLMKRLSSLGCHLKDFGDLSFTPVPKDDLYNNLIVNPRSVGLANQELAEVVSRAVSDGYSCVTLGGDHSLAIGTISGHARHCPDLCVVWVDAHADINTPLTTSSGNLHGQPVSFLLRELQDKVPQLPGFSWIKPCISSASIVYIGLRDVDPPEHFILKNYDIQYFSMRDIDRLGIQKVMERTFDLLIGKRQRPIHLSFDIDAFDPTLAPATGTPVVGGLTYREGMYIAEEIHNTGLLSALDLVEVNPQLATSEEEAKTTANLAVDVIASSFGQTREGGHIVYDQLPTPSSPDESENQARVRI

[2] = molecular target: Indoleamine 2,3-dioxygenase 1 (Homo sapiens, UniProt P14902); assay: Inhibition of human IDO1
Sequence of Indoleamine 2,3-dioxygenase 1 (P14902 whole entry): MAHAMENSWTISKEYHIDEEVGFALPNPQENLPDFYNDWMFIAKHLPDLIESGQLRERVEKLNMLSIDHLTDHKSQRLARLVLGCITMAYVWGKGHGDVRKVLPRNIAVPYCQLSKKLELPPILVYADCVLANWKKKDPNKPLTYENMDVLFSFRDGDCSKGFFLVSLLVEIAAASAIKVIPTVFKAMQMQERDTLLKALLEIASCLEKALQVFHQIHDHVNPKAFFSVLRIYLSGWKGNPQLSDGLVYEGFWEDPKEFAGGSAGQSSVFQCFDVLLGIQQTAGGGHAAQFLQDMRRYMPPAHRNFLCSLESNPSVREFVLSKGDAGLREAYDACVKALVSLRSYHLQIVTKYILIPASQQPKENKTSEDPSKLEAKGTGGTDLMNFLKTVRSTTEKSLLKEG

Splenocyte = assay: Antiproliferative activity in mouse splenocyte assessed as inhibition of cell proliferation incubated for 72 hrs by MTT assay; assay type: functional; design: scale not given: the % may be the effect or the level left
[3] = molecular target: Programmed cell death protein 1/Programmed cell death 1 ligand 1 (Homo sapiens, UniProt Q15116+Q9NZQ7); assay: Inhibition of PD-1/PD-L1 interaction (unknown origin) incubated for 24 hrs by HTRF assay; assay type: protein-complex assay
Sequence of Programmed cell death protein 1/Programmed cell death 1 ligand 1 (Q15116 whole entry): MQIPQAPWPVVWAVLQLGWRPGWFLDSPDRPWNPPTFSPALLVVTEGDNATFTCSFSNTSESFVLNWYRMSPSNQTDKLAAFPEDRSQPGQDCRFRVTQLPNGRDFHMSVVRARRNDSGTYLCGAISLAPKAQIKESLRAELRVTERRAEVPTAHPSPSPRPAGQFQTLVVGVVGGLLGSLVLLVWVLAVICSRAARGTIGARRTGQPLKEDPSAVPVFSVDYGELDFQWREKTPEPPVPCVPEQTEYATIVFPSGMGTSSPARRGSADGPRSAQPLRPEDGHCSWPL
Sequence of Programmed cell death protein 1/Programmed cell death 1 ligand 1 (Q9NZQ7 whole entry): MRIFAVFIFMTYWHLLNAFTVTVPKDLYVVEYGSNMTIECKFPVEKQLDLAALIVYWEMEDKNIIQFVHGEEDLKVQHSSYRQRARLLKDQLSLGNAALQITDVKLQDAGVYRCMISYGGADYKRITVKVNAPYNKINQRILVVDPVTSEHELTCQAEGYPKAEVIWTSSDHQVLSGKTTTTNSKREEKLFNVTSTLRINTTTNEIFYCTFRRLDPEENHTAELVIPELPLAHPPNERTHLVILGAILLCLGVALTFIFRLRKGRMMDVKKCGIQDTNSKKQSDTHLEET

[4] = molecular target: T2, Ectonucleoside triphosphate diphosphohydrolase 1 (Homo sapiens, UniProt P49961); assay: Inhibition of human NTPDase1
T2 sequence (P49961 whole entry): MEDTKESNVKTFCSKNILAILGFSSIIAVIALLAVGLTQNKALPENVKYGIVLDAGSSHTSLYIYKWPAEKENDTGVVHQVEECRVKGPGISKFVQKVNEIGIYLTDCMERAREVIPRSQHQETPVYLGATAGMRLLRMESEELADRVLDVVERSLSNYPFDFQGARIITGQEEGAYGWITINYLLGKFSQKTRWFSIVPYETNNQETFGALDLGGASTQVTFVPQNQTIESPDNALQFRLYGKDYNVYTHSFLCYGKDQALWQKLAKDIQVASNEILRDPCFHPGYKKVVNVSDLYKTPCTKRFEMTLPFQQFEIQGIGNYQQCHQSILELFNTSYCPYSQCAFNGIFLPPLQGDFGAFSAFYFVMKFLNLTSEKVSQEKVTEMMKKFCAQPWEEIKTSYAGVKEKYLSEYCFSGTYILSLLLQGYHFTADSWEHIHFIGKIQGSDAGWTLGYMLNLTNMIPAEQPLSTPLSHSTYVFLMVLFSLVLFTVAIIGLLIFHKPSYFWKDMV

Arginase-1 = molecular target: T3, Arginase-1 (Homo sapiens, UniProt P05089); assay: Inhibition of human ARG1
T3 sequence (P05089 whole entry): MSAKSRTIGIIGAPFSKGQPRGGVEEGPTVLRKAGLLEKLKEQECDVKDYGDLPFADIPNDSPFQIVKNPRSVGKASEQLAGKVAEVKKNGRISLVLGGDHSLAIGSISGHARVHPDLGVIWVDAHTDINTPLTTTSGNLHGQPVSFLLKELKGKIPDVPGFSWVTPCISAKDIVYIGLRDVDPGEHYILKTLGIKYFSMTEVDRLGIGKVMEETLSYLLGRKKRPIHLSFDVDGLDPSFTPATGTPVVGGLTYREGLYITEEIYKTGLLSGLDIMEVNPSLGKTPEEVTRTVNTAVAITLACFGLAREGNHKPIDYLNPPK

MIA PaCa-2 = assay: Antiproliferative activity against human MIA PaCa-2 cells
[5] = molecular target: C-X-C chemokine receptor type 4 (Homo sapiens, UniProt P61073); assay: Antagonist activity at CXCR4 receptor in human MIA PaCa-2 cells assessed as reduction in forskolin-stimulated inhibition of cAMP production; assay type: cell-based
Sequence of C-X-C chemokine receptor type 4 (P61073 whole entry): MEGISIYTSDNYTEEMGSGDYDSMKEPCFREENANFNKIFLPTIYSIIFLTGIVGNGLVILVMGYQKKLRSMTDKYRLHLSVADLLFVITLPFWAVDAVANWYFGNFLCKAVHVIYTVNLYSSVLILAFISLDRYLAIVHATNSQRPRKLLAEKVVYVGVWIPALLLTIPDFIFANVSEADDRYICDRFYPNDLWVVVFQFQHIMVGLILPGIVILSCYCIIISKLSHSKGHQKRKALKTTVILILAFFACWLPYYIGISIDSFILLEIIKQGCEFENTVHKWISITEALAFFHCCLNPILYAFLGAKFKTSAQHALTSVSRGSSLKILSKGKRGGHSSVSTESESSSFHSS

[6] = Half life in mouse at 2000 mg/kg; assay type: ADME, organism-based; settings: in vivo
Toll-like receptor 8 = molecular target: T4, Toll-like receptor 8 (Homo sapiens, UniProt Q9NR97); assay: Agonist activity at human TLR8 expressed in HEK293 cells by reporter gene assay
T4 sequence (Q9NR97 whole entry): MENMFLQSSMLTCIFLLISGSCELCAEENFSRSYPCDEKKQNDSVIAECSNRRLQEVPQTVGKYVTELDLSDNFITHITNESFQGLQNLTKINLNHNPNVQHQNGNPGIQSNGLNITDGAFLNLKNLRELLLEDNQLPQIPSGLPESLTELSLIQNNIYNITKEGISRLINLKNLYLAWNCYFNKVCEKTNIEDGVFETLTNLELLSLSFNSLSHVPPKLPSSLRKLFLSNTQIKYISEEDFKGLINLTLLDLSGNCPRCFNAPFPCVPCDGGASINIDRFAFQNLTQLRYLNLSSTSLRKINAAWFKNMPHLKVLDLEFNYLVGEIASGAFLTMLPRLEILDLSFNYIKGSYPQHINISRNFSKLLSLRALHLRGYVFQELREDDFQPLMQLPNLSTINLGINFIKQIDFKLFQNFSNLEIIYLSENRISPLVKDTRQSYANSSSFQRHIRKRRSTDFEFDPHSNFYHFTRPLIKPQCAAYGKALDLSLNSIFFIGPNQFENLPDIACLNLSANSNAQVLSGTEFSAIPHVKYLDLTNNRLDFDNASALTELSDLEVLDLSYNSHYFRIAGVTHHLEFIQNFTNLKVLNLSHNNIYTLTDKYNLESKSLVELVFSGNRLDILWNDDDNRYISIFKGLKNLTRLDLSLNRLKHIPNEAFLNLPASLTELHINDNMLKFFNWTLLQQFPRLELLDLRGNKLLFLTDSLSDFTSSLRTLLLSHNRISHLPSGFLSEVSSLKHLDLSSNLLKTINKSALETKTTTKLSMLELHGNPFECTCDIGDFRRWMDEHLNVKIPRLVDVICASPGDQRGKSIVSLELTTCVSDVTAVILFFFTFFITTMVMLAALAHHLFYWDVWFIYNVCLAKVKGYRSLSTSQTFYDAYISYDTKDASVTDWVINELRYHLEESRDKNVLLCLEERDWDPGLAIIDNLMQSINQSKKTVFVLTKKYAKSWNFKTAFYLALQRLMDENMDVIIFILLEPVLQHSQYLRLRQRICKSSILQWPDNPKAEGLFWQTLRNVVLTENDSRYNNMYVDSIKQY

[7] = Oral bioavailability in rat; assay type: ADME, organism-based; settings: in vivo
[8] = Half life in rat; assay type: ADME; settings: in vivo

With N[C@@H](CSCCB(O)O)C(=O)O as the molecule, how does the pKi [1] read?
The pKi was 6.51.

With C[C@@]12CCCCC1=C(O)C(=O)c1cc3c(cc12)C(=O)C1=C(C3=O)S(=O)(=O)CCN1 as the molecule, how does the pIC50 [2] read?
The pIC50 was 6.96.

For NC(=O)C[C@H](N)c1nc([C@@H](N)CO)no1, which Activity (Splenocyte) is on record?
Its Activity is 48.4%.

With Cc1c(Nc2cccc3cc(CNCCO)cnc23)cccc1-c1ccccc1 as the molecule, how does the pIC50 [3] read?
The pIC50 was greater than 8.00.

With COc1cc(/C=N/c2nc(-c3cc4ccccc4oc3=O)cs2)cc(OC)c1OC as the molecule, how does the pIC50 [4] read?
Its pIC50 is 7.30.

With CN[C@@H](CO)C(=O)N1C[C@H](CCCB(O)O)[C@](N)(C(=O)O)C1 as the molecule, how does the pIC50 (Arginase-1) read?
The pIC50 was 6.13.

Which results are given for CCN(CC)CCCC(C)Nc1ccnc2cc(Cl)ccc12 (configuration not stated) [CHLOROQUINE]?
pIC50 (MIA PaCa-2): 5.46; pEC50 [5]: 5.19

With Cn1cc(C[C@@H](N)C(=O)O)c2ccccc21 [INDOXIMOD] as the molecule, how does the half-life [6] read?
The half-life was 10.5 h.

With CCCN(CCC)C(=O)C1=Cc2ccc(-c3ccc(C(=O)N4CCCC4)cc3)cc2N=C(N)C1 [MOTOLIMOD] as the molecule, how does the pEC50 (Toll-like receptor 8) read?
Its pEC50 is 7.00.

For N=C(NO)NCC[C@H](N)C(=O)O [NOR-NOHA], which bioavailability [7] is on record?
Its bioavailability is 100%.

And the half-life [8]?
The half-life was 0.25 h.
